Where “and” joins values, the source holds several entries; their conditions need not be identical. Equal values may be shown once. Toxic doses and inconclusive results are not listed.
Test system: P388 leukemia ip, CD2F1 mice, survival T/C
Assay: NCI In Vivo Anticancer Drug Screen. Data for tumor model P388 Leukemia (intraperitoneal) in CD2F1 (CDF1) mice
Details: endpoint: median survival time, higher = longer survival
Procedure, shortened: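 Mice carrying the transplanted tumor received test compound or vehicle. Survival was recorded in each group, and the value is the treated-group measurement divided by that of the vehicle-treated control group.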

[1] = dose: 50.0 mg/kg/injection, schedule: Q01DX005 (ip), vehicle: saline with Tween-80
[2] = dose: 100.0 mg/kg/injection, schedule: Q01DX005 (ip), vehicle: saline with Tween-80
[3] = dose: 200.0 mg/kg/injection, schedule: Q01DX005 (ip), vehicle: saline with Tween-80
[4] = dose: 60.0 mg/kg/injection, schedule: Q01DX005 (ip), vehicle: Klucel (hydroxypropylcellulose) (HPC)
[5] = dose: 120.0 mg/kg/injection, schedule: Q01DX005 (ip), vehicle: Klucel (hydroxypropylcellulose) (HPC)
[6] = dose: 240.0 mg/kg/injection, schedule: Q01DX005 (ip), vehicle: Klucel (hydroxypropylcellulose) (HPC)
[7] = dose: 50.0 mg/kg/injection, schedule: Q01DX005 (ip), vehicle: Klucel (hydroxypropylcellulose) (HPC)
[8] = dose: 100.0 mg/kg/injection, schedule: Q01DX005 (ip), vehicle: Klucel (hydroxypropylcellulose) (HPC)
[9] = dose: 200.0 mg/kg/injection, schedule: Q01DX005 (ip), vehicle: Klucel (hydroxypropylcellulose) (HPC)
[10] = dose: 50.0 mg/kg/injection, schedule: Q01DX009 (ip), vehicle: saline with Tween-80
[11] = dose: 100.0 mg/kg/injection, schedule: Q01DX009 (ip), vehicle: saline with Tween-80
[12] = dose: 100.0 mg/kg/injection, schedule: Q04DX003 (ip), vehicle: saline with Tween-80
[13] = dose: 200.0 mg/kg/injection, schedule: Q01DX009 (ip), vehicle: saline with Tween-80
[14] = dose: 200.0 mg/kg/injection, schedule: Q04DX003 (ip), vehicle: saline with Tween-80
[15] = dose: 60.0 mg/kg/injection, schedule: Q01DX005 (ip), vehicle: saline with Tween-80
[16] = dose: 120.0 mg/kg/injection, schedule: Q01DX005 (ip), vehicle: saline with Tween-80
[17] = dose: 240.0 mg/kg/injection, schedule: Q01DX005 (ip), vehicle: saline with Tween-80
[18] = dose: 12.5 mg/kg/injection, schedule: Q01DX005 (ip), vehicle: saline with Tween-80
[19] = dose: 25.0 mg/kg/injection, schedule: Q01DX005 (ip), vehicle: saline with Tween-80

## CCOC(=O)c1n[nH]c(C)c1C/C(=N/O)c1ccccc1
[1]
  T/C: 103 % of control
[2]
  T/C: 92 % of control
[3]
  T/C: 92 % of control

## Cn1c(=O)cc(NC2OC(CO)C(O)C(O)C2O)[nH]c1=O (configuration not stated)
dose: 60.0 mg/kg/injection, schedule: Q01DX005 (ip), vehicle: saline
  T/C: 97 % of control
dose: 120.0 mg/kg/injection, schedule: Q01DX005 (ip), vehicle: saline
  T/C: 97 % of control
dose: 240.0 mg/kg/injection, schedule: Q01DX005 (ip), vehicle: saline
  T/C: 99 % of control

## c1ccc(CC(Nc2cccnc2)c2ccccc2)cc1 (configuration not stated)
[4]
  T/C: 98 % of control
[5]
  T/C: 104 % of control
[6]
  T/C: 101 % of control

## COc1ccc(C=NCCC[Si]23OCCN(CCO2)CCO3)c(OC)c1OC
[7]
  T/C: 98 % of control
[8]
  T/C: 94 % of control
[9]
  T/C: 103 % of control

## CCCCCCC1=NC(C)(C)CO1
[10]
  T/C: 100 % of control
dose: 50.0 mg/kg/injection, schedule: Q04DX003 (ip), vehicle: saline with Tween-80
  T/C: 100 % of control
[11]
  T/C: 104 % of control
[12]
  T/C: 100 % of control
[13]
  T/C: 100 % of control
[14]
  T/C: 109 % of control

## COc1ccc2nc(C)c3c(c2c1)C(=O)N(CCC[N+]1([O-])CC[N+]([O-])(CCCN2C(=O)c4c(c5cc(OC)ccc5[n+]([O-])c4C)C2=O)CC1)C3=O (configuration not stated)
[15]
  T/C: 87 % of control
[16]
  T/C: 89 % of control
[17]
  T/C: 92 % of control

## O=C1c2ccccc2C(=O)c2c1cccc2-c1ccccc1
[7]
  T/C: 86 % of control
[8]
  T/C: 87 % of control
[9]
  T/C: 88 % of control

## CCOC(=O)Cc1csc(/C=C/c2ccc(OC)c(OC)c2)n1
[15]
  T/C: 96 % of control
[16]
  T/C: 96 % of control
[17]
  T/C: 90 % of control

## Cc1c(N=Nc2cccc(F)c2)c(-c2ccccc2)nn1C(=S)S
[1]
  T/C: 117 % of control
[2]
  T/C: 111 % of control
[3]
  T/C: 104 % of control

## O=C(O)c1cc(Cl)n[nH]c1=O
[7]
  T/C: 95 % of control
[8]
  T/C: 92 % of control
[9]
  T/C: 86 % of control

## CCN(CC)c1ccc2c(c1)Oc1cc(N(CC)CC)ccc1C21c2ccccc2C(=O)N1c1ccccc1
[7]
  T/C: 98 % of control
[8]
  T/C: 99 % of control
[9]
  T/C: 103 % of control

## COc1ccc2c3c(cccc13)-c1ccccc1C2=O
dose: 6.25 mg/kg/injection, schedule: Q01DX005 (ip), vehicle: saline with Tween-80
  T/C: 95 % of control
[18]
  T/C: 91 % of control
[19]
  T/C: 93 % of control

## CCC1(C(=O)OC)CCc2c(cc(OC)c3ccccc23)C1=O (configuration not stated)
[7]
  T/C: 87 % of control
[8]
  T/C: 87 % of control
[9]
  T/C: 89 % of control

## CCOC(=O)/C=C1/C(=O)OC2C1OC1OC(C)(C)OC12 (configuration not stated)
dose: 3.75 mg/kg/injection, schedule: Q01DX005 (ip), vehicle: saline with Tween-80
  T/C: 98 % of control
dose: 7.5 mg/kg/injection, schedule: Q01DX005 (ip), vehicle: saline with Tween-80
  T/C: 97 % of control

## O=C(/C=C/c1c[nH]c2ccccc12)c1ccccc1O
[15]
  T/C: 98 % of control
[16]
  T/C: 90 % of control
[17]
  T/C: 98 % of control

## C=CC1CCC[S+]1CC(=O)OCC (configuration not stated)
[18]
  T/C: 100 % of control
[19]
  T/C: 105 % of control
[1]
  T/C: 102 % of control and 107 % of control

## COc1cccc2c1[C@H]1CO[C@H]3C4C[C@H](C(=O)O)C([C@@H](C2)N13)N4C (some centres not stated)
dose: 0.31 mg/kg/injection, schedule: Q01DX005 (ip), vehicle: water
  T/C: 112 % of control
dose: 0.62 mg/kg/injection, schedule: Q01DX005 (ip), vehicle: water
  T/C: 113 % of control and 121 % of control
dose: 1.25 mg/kg/injection, schedule: Q01DX005 (ip), vehicle: water
  T/C: 116 % of control
dose: 10.0 mg/kg/injection, schedule: Q01DX005 (ip), vehicle: water
  T/C: 165 % of control and 195 % of control and 247 % of control
dose: 20.0 mg/kg/injection, schedule: Q01DX005 (ip), vehicle: water
  T/C: 247 % of control

## CCCNN1CCN(c2ccncc2S(=O)(=O)N2CCCCC2)CC1
[4]
  T/C: 98 % of control
[5]
  T/C: 99 % of control
[6]
  T/C: 94 % of control

## O=C(NN1C(=O)C2=Cc3ccccc3OC2=NC1c1ccccc1O)c1ccncc1 (configuration not stated)
dose: 100.0 mg/kg/injection, schedule: Q01DX001 (ip), vehicle: saline
  T/C: 96 % of control
dose: 200.0 mg/kg/injection, schedule: Q01DX001 (ip), vehicle: saline
  T/C: 98 % of control
dose: 400.0 mg/kg/injection, schedule: Q01DX001 (ip), vehicle: saline
  T/C: 94 % of control

## COc1cc2c[n+](C)c(-c3ccc(Cl)c(Cl)c3)c(OC)c2cc1OC
dose: 12.5 mg/kg/injection, schedule: Q04DX003 (ip), vehicle: saline
  T/C: 101 % of control
dose: 25.0 mg/kg/injection, schedule: Q04DX003 (ip), vehicle: saline
  T/C: 100 % of control
dose: 50.0 mg/kg/injection, schedule: Q04DX003 (ip), vehicle: saline
  T/C: 100 % of control

## O=C(O)CNC(=O)C(CSCc1ccccc1)NC(=O)OCc1ccccc1 (configuration not stated)
[7]
  T/C: 103 % of control
[10]
  T/C: 101 % of control
[8]
  T/C: 102 % of control
[11]
  T/C: 99 % of control
[9]
  T/C: 100 % of control
[13]
  T/C: 99 % of control

## C=C(C)C(=NC(C)(C)C)Nc1ccc(Cl)cc1
dose: 12.5 mg/kg/injection, schedule: Q01DX005 (ip), vehicle: Klucel (hydroxypropylcellulose) (HPC)
  T/C: 104 % of control and 106 % of control
dose: 25.0 mg/kg/injection, schedule: Q01DX005 (ip), vehicle: Klucel (hydroxypropylcellulose) (HPC)
  T/C: 106 % of control and 109 % of control
dose: 25.0 mg/kg/injection, schedule: Q01DX009 (ip), vehicle: saline with Tween-80
  T/C: 98 % of control and 100 % of control
[7]
  T/C: 110 % of control and 116 % of control and 123 % of control
[10]
  T/C: 100 % of control and 102 % of control and 109 % of control
[8]
  T/C: 112 % of control and 116 % of control and 120 % of control
[11]
  T/C: 109 % of control and 111 % of control and 119 % of control
[13]
  T/C: 118 % of control

## COc1ccccc1-n1cccc(C#N)c1=S
[4]
  T/C: 98 % of control
[5]
  T/C: 91 % of control
[6]
  T/C: 89 % of control

## OC(CCC(O)(C(F)(F)F)C(F)(F)F)(C(F)(F)F)C(F)(F)F
dose: 6.25 mg/kg/injection, schedule: Q01DX005 (ip), vehicle: saline
  T/C: 99 % of control
dose: 12.5 mg/kg/injection, schedule: Q01DX005 (ip), vehicle: saline
  T/C: 101 % of control
dose: 25.0 mg/kg/injection, schedule: Q01DX005 (ip), vehicle: saline
  T/C: 100 % of control
[1]
  T/C: 103 % of control

## CN/N=C/c1cc(=O)n(C)c(=O)n1C
[10]
  T/C: 101 % of control
[11]
  T/C: 101 % of control
[13]
  T/C: 99 % of control

## C=C(C)CCN1C(=O)NC(C)(C)C1O (configuration not stated)
dose: 50.0 mg/kg/injection, schedule: Q01DX005 (ip), vehicle: saline
  T/C: 100 % of control
dose: 100.0 mg/kg/injection, schedule: Q01DX005 (ip), vehicle: saline
  T/C: 107 % of control
dose: 200.0 mg/kg/injection, schedule: Q01DX005 (ip), vehicle: saline
  T/C: 101 % of control

## [CH3][Sn]([CH2]c1ccccc1)([CH2]c1ccccc1)[c]1ccccc1
[12]
  T/C: 98 % of control
[14]
  T/C: 105 % of control
dose: 400.0 mg/kg/injection, schedule: Q04DX003 (ip), vehicle: saline with Tween-80
  T/C: 100 % of control

## O=[N+]([O-])O.[Cl-].[Cl-].[NH-]CC[NH-].[NH-]CC[NH-].[Rh+3]
dose: 12.5 mg/kg/injection, schedule: Q04DX003 (ip), vehicle: distilled water + Tween-80
  T/C: 106 % of control
dose: 25.0 mg/kg/injection, schedule: Q04DX003 (ip), vehicle: distilled water + Tween-80
  T/C: 99 % of control
dose: 50.0 mg/kg/injection, schedule: Q04DX003 (ip), vehicle: distilled water + Tween-80
  T/C: 108 % of control
dose: 100.0 mg/kg/injection, schedule: Q04DX003 (ip), vehicle: distilled water + Tween-80
  T/C: 111 % of control
dose: 200.0 mg/kg/injection, schedule: Q04DX003 (ip), vehicle: distilled water + Tween-80
  T/C: 102 % of control

## c1ccc(COCC(COCc2ccccc2)(COCc2ccccc2)COCc2ccccc2)cc1
dose: 12.5 mg/kg/injection, schedule: Q01DX009 (ip), vehicle: saline + alcohol
  T/C: 105 % of control
dose: 25.0 mg/kg/injection, schedule: Q01DX009 (ip), vehicle: saline + alcohol
  T/C: 104 % of control
dose: 50.0 mg/kg/injection, schedule: Q01DX009 (ip), vehicle: saline + alcohol
  T/C: 97 % of control

From PubChem BioAssay AID330 (DTP/NCI, 2004)
